Assay results as given in ChEMBL document CHEMBL1154943, “Exploration of SAR features by modifications of thiazoleacetic acids as CRTH2 antagonists” (Bioorg Med Chem Lett, 2010).

Columns and labels:
[1] = target: T1, Prostaglandin D2 receptor 2 (Homo sapiens, UniProt Q9Y5Y4); test: Antagonist activity at human CRTH2 receptor expressed in HEK385-7 cells assessed as inhibition of PGD2-mediated beta-arrestin translocation preincubated 5 mins prior to PGD2 challenge measured after 5 mins by BRET assay; assay type: functional, cell-based
T1 sequence (Q9Y5Y4 whole entry): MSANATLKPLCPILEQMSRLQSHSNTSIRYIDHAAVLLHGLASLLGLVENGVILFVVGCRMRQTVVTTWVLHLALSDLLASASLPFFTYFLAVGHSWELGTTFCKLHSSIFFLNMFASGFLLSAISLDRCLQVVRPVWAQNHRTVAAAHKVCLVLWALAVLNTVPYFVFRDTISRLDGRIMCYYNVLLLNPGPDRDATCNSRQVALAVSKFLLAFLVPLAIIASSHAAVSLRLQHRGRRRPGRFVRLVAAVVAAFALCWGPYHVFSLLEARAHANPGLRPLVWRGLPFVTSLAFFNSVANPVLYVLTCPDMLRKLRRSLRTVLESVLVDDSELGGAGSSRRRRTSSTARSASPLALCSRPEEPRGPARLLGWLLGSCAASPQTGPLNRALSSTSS

[2] = target: T1, Prostaglandin D2 receptor 2; test: Displacement of [3H]PGD2 from human CRTH2 receptor expressed in HEK385-7 cells; assay type: cell-based
[3] = target: T2, Prostaglandin D2 receptor 2 (Homo sapiens) (UniProt Q9Y5Y4); test: Antagonist activity at human CRTH2 receptor expressed in HEK385-7 cells assessed as inhibition of PGD2-mediated beta-arrestin translocation preincubated 5 mins prior to PGD2 challenge measured after 5 mins by BRET assay relative to control; assay type: functional, cell-based
T2 sequence (whole entry): T1 sequence (Q9Y5Y4 whole entry)

[4] = target: T3, Prostaglandin D2 receptor (Mus musculus, UniProt P70263); test: Inhibition of mouse DP receptor
T3 sequence (P70263 whole entry): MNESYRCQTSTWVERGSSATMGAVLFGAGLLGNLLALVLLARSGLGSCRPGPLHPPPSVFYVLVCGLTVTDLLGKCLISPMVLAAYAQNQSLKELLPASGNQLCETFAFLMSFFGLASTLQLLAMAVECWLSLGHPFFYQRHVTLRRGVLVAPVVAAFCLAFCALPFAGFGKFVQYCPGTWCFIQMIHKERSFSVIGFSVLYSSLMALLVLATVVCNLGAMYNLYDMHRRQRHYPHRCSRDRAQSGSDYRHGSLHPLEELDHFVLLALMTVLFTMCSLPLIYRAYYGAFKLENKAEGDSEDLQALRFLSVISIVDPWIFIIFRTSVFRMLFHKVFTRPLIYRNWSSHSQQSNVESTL

[5] = target: T4, Chemoattractant receptor-homologous molecule expressed on Th2 cells (Cavia porcellus, UniProt Q56D28); test: Inhibition of guinea pig CRTH2 receptor
T4 sequence (Q56D28 whole entry): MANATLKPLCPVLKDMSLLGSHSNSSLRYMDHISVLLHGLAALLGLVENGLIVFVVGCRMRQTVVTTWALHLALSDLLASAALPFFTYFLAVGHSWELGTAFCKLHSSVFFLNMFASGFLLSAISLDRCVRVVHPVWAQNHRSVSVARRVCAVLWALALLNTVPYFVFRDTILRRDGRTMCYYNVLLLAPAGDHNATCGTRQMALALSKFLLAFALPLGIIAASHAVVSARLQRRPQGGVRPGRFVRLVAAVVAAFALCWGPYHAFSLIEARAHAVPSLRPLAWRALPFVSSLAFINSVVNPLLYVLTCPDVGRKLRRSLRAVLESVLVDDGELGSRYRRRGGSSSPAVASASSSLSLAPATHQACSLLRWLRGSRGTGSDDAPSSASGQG

Thromboxane A2 receptor = target: T5, Thromboxane A2 receptor (Homo sapiens, UniProt P21731); test: Inhibition of thromboxane A2 receptor
T5 sequence (P21731 whole entry): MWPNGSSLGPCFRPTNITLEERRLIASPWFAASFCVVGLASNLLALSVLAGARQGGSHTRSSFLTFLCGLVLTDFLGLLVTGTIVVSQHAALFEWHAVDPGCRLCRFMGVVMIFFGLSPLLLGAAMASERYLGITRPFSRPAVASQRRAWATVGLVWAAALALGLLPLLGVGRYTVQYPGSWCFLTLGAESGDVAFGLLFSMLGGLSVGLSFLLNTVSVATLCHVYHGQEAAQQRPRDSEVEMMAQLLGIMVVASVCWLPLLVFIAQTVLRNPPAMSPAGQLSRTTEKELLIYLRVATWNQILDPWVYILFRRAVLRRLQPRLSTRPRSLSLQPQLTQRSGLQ

[6] = target: T6, Prostaglandin D2 receptor 2 (Mus musculus, UniProt Q9Z2J6); test: Inhibition of mouse CRTH2 receptor
T6 sequence (Q9Z2J6 whole entry): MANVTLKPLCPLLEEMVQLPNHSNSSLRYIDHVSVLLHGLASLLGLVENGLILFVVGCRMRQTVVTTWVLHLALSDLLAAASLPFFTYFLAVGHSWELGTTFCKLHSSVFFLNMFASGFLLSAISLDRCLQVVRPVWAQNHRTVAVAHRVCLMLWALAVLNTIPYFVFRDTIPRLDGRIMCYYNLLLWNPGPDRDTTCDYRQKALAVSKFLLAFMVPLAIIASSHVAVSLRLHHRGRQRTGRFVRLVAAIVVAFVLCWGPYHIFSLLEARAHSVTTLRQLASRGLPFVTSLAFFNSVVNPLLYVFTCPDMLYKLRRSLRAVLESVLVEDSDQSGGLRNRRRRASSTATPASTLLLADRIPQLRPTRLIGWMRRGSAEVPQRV

[7] = Inhibition of guinea pig DP receptor; parameters: species or system Cavia porcellus
[8] = target: T7, Prostaglandin D2 receptor 2 (Rattus norvegicus, UniProt Q6XKD3); test: Inhibition of rat CRTH2 receptor
T7 sequence (Q6XKD3 whole entry): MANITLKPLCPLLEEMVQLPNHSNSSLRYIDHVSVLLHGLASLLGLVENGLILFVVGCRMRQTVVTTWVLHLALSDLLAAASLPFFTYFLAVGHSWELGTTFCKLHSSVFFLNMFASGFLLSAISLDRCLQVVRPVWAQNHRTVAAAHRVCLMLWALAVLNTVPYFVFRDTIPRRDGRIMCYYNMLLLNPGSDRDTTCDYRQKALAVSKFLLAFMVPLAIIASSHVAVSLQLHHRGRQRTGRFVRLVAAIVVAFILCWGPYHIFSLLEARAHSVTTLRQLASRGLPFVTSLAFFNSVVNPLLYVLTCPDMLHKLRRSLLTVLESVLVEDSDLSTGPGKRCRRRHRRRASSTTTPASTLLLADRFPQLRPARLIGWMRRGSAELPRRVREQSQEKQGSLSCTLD

[9] = target: T8, Prostaglandin D2 receptor (Homo sapiens, UniProt Q13258); test: Inhibition of human DP receptor
T8 sequence (Q13258 whole entry): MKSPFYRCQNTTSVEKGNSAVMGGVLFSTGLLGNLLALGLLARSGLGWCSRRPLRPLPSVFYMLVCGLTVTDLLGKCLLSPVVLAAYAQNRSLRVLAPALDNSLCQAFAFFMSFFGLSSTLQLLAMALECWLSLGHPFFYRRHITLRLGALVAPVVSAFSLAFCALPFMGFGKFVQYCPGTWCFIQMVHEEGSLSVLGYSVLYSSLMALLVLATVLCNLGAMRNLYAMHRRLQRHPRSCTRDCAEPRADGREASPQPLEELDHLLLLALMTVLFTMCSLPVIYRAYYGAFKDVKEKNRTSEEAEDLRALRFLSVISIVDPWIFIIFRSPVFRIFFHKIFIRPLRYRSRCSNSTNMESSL

| Compound | IC50 [1] [nM] | IC50 [2] [nM] | Efficacy [3] [%] | further results |
| --- | --- | --- | --- | --- |
| O=C(O)Cc1sc(N(c2ccccc2)c2cccnc2)nc1-c1ccc(F)cc1 | 1500 | 43 | > 30 | – |
| CC(c1ccccc1)(c1ccccc1)c1nc(-c2ccc(F)cc2)c(CC(=O)O)s1 | 85 | 7.9 | > 80 | – |
| O=C(O)CCc1sc(C(c2ccc(F)cc2)c2ccc(F)cc2)nc1-c1cccc(F)c1 | 1000 | 75 | > 80 | – |
| O=C(O)Cc1sc(N(c2ccccc2)c2ccccc2)nc1-c1ccc(Cl)cc1 | 72 | 18 | > 80 | – |
| N#Cc1ccc(N(c2ccccc2)c2nc(-c3ccc(F)cc3)c(CC(=O)O)s2)cc1 | 460 | 84 | > 55 | – |
| CS(=O)(=O)c1ccc(N(c2ccccc2)c2nc(-c3ccc(F)cc3)c(CC(=O)O)s2)cc1 | 2000 | 190 | > 30 | – |
| O=C(O)Cc1cnc(N(c2ccc(F)cc2)c2ccc(F)cc2)nc1-c1cccc(F)c1 | > 100000 | 1260 | > 80 | – |
| COc1ccc(N(c2ccc(OC)cc2)c2ncc(CC(=O)O)c(-c3cccc(F)c3)n2)cc1 | > 100000 | 2790 | > 80 | – |
| COc1ccc(N(c2ccc(OC)cc2)c2nc(-c3cccc(F)c3)c(CC(=O)O)s2)cc1 | 260 | 15 | > 80 | – |
| O=C(O)COc1sc(C(c2ccc(F)cc2)c2ccc(F)cc2)nc1-c1cccc(F)c1 | 200 | 83 | > 80 | – |
| O=C(O)CCc1cnc(C(c2ccc(F)cc2)c2ccc(F)cc2)nc1-c1cccc(F)c1 | > 100000 | 2070 | > 80 | – |
| O=C(O)Cc1sc(N(c2ccccc2)c2ccccc2)nc1-c1ccc(F)cc1 | 98 | 15 | > 80 | – |
| O=C(O)Cc1sc(N(c2ccccc2)c2ccccc2)nc1-c1cccc(F)c1 | 79 | 4.4 | > 80 | – |
| O=C(O)Cc1sc(N(c2ccc(F)cc2)c2ccc(F)cc2)nc1-c1ccc(F)cc1 | 240 | 23 | > 80 | – |
| O=C(O)Cc1cnc(C(c2ccc(F)cc2)c2ccc(F)cc2)nc1-c1cccc(F)c1 | 12 | 1.9 | > 80 | IC50 [4]: 5900 nM; IC50 [5]: 29 nM; IC50 (Thromboxane A2 receptor): 31000 nM; IC50 [6]: 3.4 nM; IC50 [7]: > 100000 nM; IC50 [8]: 7.5 nM; IC50 [9]: 8500 nM |
| O=C(O)Cc1[nH]c(C(c2ccc(F)cc2)c2ccc(F)cc2)nc1-c1ccc(F)cc1 | > 100000 | 9140 | > 80 | – |
